Test results from ChEMBL document CHEMBL1128818, “Synthesis and antiplatelet activity of DMP 757 analogs” (Bioorg Med Chem Lett, 1995).

Target: Integrin alpha-IIb/beta-3 (Homo sapiens, UniProt P05106+P08514)
Test: Inhibition of platelet aggregation in vitro using fibrinogen binding assay

Sequence of Integrin alpha-IIb/beta-3 (P05106 27-788 limits assumed): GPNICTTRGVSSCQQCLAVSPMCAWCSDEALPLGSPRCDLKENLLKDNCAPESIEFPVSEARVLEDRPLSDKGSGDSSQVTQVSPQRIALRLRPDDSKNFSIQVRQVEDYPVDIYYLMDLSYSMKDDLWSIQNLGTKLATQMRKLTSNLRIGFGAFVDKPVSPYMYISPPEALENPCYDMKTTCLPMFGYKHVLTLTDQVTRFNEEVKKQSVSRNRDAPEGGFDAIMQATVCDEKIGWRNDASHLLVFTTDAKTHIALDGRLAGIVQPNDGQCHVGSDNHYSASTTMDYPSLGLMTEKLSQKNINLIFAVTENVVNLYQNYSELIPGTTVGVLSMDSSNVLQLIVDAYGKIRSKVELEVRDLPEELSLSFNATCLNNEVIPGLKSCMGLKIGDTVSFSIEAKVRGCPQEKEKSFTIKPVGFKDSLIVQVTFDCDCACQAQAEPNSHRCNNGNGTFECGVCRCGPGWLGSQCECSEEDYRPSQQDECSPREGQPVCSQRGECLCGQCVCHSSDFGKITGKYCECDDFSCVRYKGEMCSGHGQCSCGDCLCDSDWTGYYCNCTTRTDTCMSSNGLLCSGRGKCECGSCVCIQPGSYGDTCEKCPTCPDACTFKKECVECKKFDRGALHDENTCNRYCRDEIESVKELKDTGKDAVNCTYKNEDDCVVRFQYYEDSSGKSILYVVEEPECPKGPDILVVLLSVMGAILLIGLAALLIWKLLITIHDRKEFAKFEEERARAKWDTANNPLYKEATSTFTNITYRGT
Sequence of Integrin alpha-IIb/beta-3 (P08514 32-887 limits assumed): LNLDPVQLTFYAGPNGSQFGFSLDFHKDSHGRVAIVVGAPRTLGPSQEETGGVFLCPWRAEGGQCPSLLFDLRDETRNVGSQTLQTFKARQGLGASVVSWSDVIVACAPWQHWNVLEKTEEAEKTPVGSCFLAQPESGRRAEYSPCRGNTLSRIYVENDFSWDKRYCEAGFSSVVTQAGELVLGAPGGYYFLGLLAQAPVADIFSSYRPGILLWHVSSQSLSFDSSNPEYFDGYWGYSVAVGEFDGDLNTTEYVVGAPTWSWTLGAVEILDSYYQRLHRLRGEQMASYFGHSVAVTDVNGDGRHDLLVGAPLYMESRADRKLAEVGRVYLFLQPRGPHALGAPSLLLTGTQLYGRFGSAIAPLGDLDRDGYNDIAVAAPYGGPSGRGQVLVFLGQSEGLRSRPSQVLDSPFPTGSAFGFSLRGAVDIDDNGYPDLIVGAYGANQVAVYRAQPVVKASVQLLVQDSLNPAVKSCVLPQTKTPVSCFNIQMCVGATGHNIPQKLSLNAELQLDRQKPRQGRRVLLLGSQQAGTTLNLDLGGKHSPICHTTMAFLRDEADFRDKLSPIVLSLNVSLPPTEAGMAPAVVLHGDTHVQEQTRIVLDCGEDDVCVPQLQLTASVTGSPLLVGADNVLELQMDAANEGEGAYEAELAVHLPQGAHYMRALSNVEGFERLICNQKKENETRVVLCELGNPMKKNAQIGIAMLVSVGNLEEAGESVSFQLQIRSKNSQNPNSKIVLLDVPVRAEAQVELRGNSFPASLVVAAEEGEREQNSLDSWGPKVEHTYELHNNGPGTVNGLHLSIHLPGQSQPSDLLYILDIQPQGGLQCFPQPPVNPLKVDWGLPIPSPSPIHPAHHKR
Sequence of Integrin alpha-IIb/beta-3 (P08514 891-1039 limits assumed): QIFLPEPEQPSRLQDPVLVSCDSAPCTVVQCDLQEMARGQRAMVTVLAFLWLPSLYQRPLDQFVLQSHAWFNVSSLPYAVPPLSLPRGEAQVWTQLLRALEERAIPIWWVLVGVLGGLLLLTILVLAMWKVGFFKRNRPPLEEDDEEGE

- IC50: 4 nM
SMILES: CC(C)[C@H]1NC(=O)c2cccc(c2F)CNC(=O)[C@H](CC(=O)O)NC(=O)CNC(=O)[C@H](CCCN=C(N)N)N(C)C1=O
